# Reference: patent US10064865B2, “Composition comprising phosphodiesterase type 5 inhibitor for inhibiting apoptosis of nerve cells” (ARIBIO INC., priority 2012, dated 2018)
# System: neuron apoptosis-operated rats
# Experiment: Example 2 hindlimb placing test
# Format: in vivo, Sprague-Dawley (SD) rats
# Description: Sensorimotor function was evaluated by use of limb placing (de Ryck M et al., Stroke. 20:1383-90(1989)) and body swing (Borlongan and Sanberg, J Neurosci. 15:5372-8(1995)) tests. These tests were performed at 1 and 28 days after neuron apoptosis. The investigator performing the surgery and behavioral assessments was blinded to treatment assignment.
# Limb placing test: Forelimb and hindlimb placement were assessed independently. For the forelimb placing test, the rats were held by their torso with their forepaws hanging free and moved slowly toward the edge of a tabletop, stopping short of touching the vibrissae (for vision-induced placing), touching the vibrissae (for vibrissae-induced placing), making light contact with the front of the forepaw to the edge of the tabletop (for tactile-induced placing), and pressing the forepaws to the edge of the table with increased pressure (for proprioceptive-induced placing). Hindlimb placing was conducted in the same manner as above but with tactile and proprioceptive stimulation applied to the front/top of each hindlimb. Each limb for placing in response to visual, vibrissae, tactile, and proprioceptive stimulation are scored in the following manner: normal performance=0 points; performance with unilateral limb=1 point; performance with a delay (2 seconds) and/or incomplete=2 point; no performance=3 points. A total of 12 points in forelimb placing test and 6 points in hindlimb placing test means maximal neurological deficit, and 0 points means normal performance.
# All data were expressed as mean±standard deviation (S.D.) of ten rats. Multiple comparison tests for different dose groups were conducted. Variance homogeneity was examined using the Levene test (Levene A, Clin Otalary, 1981; 6:145-51). […] In addition, the percent changes as compared with neuron apoptosis control and mirodenafil treated rats were calculated to help the understanding of the efficacy of test substances as follow Equation 6 and 7. […]
smiles,measurement,setting,value
"CCCOc1ccc(S(=O)(=O)N2CCN(CCO)CC2)cc1-c1nc2c(CCC)cn(CC)c2c(=O)[nH]1 [Mirodenafil, mirodenafil]","hindlimb placing test scores at 28 days, change as compared with neuron apoptosis control",1 mg/kg from 24 hrs after surgery,−65.22%
same,"hindlimb placing test scores at 28 days, change as compared with neuron apoptosis control",1 mg/kg from 72 hrs after surgery,−39.13%
same,"hindlimb placing test scores at 28 days, change as compared with neuron apoptosis control",1 mg/kg from 168 hrs after surgery,−17.39%
